Laboratory results as given in patent US11053206B2, “Hydrofluorocarboximidate and methods of making and using the same” (3M INNOVATIVE PROPERTIES COMPANY, priority 2017, dated 2021).

Assay: Thermal stability (purity by GC-FID after heating with absorbent)
Assay type: physicochemical
Details: initial purity 97.7%
Description: The samples were stirred for 24 h at 50° C. and then analyzed for purity by GC-FID. The % purity EX-6 initially was 97.7%. Shown in Table 2 below are the % purity after the thermal stability test. All of the results are within error of the test method.

## CO/C(=N\C(F)(F)C(F)(F)C(F)(F)F)C(F)(F)C(F)(F)F [EX-6, methyl 2,2,3,3,3-pentafluoro-N-(perfluoropropyl)propanimidate]
100 mg 4 Angstrom Molecular Sieves, 1 g stirred 24 h at 50° C.
  Purity (%) after thermal stability test: 98.0%
100 mg Activated Carbon, 1 g stirred 24 h at 50° C.
  Purity (%) after thermal stability test: 98.2%
100 mg Basic Alumina, 1 g stirred 24 h at 50° C.
  Purity (%) after thermal stability test: 98.0%
100 mg K2CO3, 1 g stirred 24 h at 50° C.
  Purity (%) after thermal stability test: 97.9%
100 mg Silica Gel, 1 g stirred 24 h at 50° C.
  Purity (%) after thermal stability test: 97.9%
No absorbent, 1 g stirred 24 h at 50° C.
  Purity (%) after thermal stability test: 97.7%
